Source: the kinase profiling compilation of Christmann-Franck et al. (2016)

What was measured:
Test in all cases: radiometric filter-binding kinase assay
STK3 (human) = STK3 (human) (UniProt Q13188)
PAK6 (human) = PAK6 (human) (UniProt Q9NQU5)
SRC (human) = SRC (human) (UniProt P12931)
MARK4 (human) = MARK4 (human) (UniProt Q96L34)
CLK2 (human) = CLK2 (human) (UniProt P49760)
PRKCZ (human) = PRKCZ (human) (UniProt Q05513)
DAPK1 (human) = DAPK1 (human) (UniProt P53355)
CHEK1 (human) = CHEK1 (human) (UniProt O14757)
CHEK1 (human), sequence (O14757 whole entry, looked up): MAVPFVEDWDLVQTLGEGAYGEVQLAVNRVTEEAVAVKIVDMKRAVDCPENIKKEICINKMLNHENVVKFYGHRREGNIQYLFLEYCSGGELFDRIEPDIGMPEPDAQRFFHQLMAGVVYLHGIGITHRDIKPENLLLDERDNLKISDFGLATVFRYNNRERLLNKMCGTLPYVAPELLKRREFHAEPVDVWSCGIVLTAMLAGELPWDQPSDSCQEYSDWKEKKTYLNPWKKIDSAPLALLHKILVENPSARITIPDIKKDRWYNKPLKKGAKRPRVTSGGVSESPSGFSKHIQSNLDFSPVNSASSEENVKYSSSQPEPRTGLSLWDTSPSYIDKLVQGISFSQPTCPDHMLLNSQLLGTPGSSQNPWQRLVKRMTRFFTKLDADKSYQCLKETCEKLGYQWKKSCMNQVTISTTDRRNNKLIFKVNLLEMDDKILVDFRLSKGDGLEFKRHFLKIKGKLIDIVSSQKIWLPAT

ERBB4 (human) = ERBB4 (human) (UniProt Q15303)
HIPK3 (human) = HIPK3 (human) (UniProt Q9H422)
TAOK1 (human) = TAOK1 (human) (UniProt Q7L7X3)
TAOK1 (human), sequence (Q7L7X3 whole entry, looked up): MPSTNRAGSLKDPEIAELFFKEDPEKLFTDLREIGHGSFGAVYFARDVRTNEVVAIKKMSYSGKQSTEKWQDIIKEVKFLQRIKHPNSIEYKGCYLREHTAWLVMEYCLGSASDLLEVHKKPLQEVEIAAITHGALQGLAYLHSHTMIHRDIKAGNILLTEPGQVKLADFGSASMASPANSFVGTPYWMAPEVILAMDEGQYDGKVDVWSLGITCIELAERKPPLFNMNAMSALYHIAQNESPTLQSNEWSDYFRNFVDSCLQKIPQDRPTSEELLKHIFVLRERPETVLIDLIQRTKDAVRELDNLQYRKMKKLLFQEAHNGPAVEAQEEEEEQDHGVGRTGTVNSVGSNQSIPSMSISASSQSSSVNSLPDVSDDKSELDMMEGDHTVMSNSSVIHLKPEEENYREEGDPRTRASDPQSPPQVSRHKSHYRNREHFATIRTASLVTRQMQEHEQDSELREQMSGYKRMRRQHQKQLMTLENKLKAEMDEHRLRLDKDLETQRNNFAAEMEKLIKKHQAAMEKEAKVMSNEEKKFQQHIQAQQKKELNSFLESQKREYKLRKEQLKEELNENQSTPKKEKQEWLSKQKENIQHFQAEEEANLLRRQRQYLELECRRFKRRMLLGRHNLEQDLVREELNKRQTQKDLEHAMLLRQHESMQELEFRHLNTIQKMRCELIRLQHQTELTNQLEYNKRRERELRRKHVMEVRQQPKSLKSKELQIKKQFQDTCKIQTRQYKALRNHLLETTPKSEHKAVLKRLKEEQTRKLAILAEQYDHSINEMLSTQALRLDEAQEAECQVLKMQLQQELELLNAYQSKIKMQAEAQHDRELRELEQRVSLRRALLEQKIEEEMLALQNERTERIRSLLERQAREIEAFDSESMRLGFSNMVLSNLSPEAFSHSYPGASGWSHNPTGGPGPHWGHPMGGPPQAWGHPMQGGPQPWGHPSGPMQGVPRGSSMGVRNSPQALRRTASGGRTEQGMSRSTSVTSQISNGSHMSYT

RPS6KA5 KD1 KD2 (human) = RPS6KA5 KD1 KD2 (human) (UniProt O75582)
MST4 (human) = MST4 (human) (UniProt Q9P289)
MST4 (human), sequence (Q9P289 whole entry, looked up): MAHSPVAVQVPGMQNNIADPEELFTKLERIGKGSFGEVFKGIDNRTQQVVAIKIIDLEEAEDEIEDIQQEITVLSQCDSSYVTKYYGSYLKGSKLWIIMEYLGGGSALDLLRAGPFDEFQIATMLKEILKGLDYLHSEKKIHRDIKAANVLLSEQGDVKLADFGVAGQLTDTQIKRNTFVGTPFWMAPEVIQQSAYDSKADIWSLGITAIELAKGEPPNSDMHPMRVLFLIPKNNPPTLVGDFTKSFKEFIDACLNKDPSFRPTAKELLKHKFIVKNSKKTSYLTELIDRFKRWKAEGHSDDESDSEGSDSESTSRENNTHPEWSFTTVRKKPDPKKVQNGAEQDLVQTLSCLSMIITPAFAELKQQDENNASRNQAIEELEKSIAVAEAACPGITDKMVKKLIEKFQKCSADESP

HIPK1 (human) = HIPK1 (human) (UniProt Q86Z02)
CHEK2 (human) = CHEK2 (human) (UniProt O96017)
CHEK2 (human), sequence (O96017 whole entry, looked up): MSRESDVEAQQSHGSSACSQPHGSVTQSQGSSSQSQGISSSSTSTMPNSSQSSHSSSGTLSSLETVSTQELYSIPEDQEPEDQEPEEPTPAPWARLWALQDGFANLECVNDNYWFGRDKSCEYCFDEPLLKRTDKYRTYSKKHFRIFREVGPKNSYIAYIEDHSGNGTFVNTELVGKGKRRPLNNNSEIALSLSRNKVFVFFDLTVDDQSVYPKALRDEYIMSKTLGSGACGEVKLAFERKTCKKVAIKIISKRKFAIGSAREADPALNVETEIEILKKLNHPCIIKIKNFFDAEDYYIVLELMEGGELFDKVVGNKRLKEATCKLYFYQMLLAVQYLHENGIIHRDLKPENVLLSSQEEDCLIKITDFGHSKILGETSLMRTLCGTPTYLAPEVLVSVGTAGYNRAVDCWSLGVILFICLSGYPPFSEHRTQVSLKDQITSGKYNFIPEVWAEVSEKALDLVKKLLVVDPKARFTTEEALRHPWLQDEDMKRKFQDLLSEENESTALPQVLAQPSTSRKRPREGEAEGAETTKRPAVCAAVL

PRKCA (human) = PRKCA (human) (UniProt P17252)
AURKA (human) = AURKA (human) (UniProt O14965)

PRKCZ (human), sequence (Q05513 whole entry, looked up): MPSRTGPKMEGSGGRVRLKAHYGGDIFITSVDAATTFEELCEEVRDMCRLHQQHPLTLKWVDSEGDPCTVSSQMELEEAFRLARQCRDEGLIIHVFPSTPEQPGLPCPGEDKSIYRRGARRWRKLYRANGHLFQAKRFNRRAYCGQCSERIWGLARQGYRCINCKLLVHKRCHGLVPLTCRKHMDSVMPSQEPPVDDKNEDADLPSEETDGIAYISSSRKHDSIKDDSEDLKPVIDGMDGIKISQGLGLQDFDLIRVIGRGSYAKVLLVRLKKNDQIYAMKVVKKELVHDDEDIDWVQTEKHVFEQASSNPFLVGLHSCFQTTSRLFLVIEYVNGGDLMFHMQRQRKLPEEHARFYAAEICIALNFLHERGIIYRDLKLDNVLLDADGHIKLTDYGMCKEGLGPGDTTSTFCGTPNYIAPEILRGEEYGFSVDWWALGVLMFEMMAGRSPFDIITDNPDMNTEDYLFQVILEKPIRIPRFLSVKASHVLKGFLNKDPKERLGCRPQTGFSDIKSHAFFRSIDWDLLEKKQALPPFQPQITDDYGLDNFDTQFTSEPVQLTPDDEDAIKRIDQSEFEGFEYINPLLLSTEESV
MARK4 (human), sequence (Q96L34 whole entry, looked up): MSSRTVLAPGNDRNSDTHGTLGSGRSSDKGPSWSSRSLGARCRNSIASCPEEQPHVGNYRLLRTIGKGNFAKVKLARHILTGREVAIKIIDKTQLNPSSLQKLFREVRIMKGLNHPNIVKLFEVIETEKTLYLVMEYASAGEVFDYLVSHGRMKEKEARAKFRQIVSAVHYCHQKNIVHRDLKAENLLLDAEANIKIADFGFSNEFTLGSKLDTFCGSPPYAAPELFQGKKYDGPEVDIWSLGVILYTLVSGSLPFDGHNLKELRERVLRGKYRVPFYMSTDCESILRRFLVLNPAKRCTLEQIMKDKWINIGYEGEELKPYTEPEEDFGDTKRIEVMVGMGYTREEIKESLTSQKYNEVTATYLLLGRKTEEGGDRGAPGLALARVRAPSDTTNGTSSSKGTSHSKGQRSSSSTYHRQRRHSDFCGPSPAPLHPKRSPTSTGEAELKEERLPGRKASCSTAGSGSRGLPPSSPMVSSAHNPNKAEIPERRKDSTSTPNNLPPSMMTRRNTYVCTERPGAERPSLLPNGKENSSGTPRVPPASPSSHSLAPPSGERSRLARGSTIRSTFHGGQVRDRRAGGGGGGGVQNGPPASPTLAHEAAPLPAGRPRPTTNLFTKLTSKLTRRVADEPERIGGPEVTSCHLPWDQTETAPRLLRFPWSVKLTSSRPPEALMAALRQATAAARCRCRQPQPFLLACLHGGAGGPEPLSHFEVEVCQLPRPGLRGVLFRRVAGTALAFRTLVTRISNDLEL
STK3 (human), sequence (Q13188 whole entry, looked up): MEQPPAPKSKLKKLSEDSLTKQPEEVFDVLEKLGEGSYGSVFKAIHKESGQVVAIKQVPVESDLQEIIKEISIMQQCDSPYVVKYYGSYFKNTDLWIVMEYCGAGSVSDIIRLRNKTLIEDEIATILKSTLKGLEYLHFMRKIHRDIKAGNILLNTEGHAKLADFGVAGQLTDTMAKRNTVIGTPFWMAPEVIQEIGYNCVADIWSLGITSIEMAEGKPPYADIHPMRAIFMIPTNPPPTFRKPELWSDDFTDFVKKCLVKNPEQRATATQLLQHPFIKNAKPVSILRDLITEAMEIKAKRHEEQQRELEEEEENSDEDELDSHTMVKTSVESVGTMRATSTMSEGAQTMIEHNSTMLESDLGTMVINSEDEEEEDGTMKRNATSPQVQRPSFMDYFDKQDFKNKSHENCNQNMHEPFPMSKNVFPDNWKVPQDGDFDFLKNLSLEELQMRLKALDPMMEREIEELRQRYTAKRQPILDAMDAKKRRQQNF

Work on `CCn1c(-c2nonc2N)nc2cncc(CNC3CCNCC3)c21` yielded a residual activity (STK3 (human); compound 0.1 µM) of 106%, a residual activity (STK3 (human); compound 1.0 µM) of 97% and a residual activity (STK3 (human); compound 10.0 µM) of 71%. It also gave a residual activity (PAK6 (human); compound 0.1 µM) of 103%, a residual activity (PAK6 (human); compound 1.0 µM) of 94% and a residual activity (PAK6 (human); compound 10.0 µM) of 93%. It also gave a residual activity (SRC (human); compound 0.1 µM) of 110%, a residual activity (SRC (human); compound 1.0 µM) of 120% and a residual activity (SRC (human); compound 10.0 µM) of 102%. The residual activity (MARK4 (human); compound 0.1 µM) was 91%, the residual activity (MARK4 (human); compound 1.0 µM) was 103% and the residual activity (MARK4 (human); compound 10.0 µM) was 81%. For the same compound, the residual activity (CLK2 (human); compound 0.1 µM) was 107%, the residual activity (CLK2 (human); compound 1.0 µM) was 71% and the residual activity (CLK2 (human); compound 10.0 µM) was 22%. It also gave a residual activity (PRKCZ (human); compound 0.1 µM) of 94%, a residual activity (PRKCZ (human); compound 1.0 µM) of 71% and a residual activity (PRKCZ (human); compound 10.0 µM) of 25%. The residual activity (DAPK1 (human); compound 0.1 µM) was 111%, the residual activity (DAPK1 (human); compound 1.0 µM) was 84% and the residual activity (DAPK1 (human); compound 10.0 µM) was 35%. For the same compound, the residual activity (CHEK1 (human); compound 0.1 µM) was 89%, the residual activity (CHEK1 (human); compound 1.0 µM) was 88% and the residual activity (CHEK1 (human); compound 10.0 µM) was 53%. For the same compound, the residual activity (ERBB4 (human); compound 0.1 µM) was 112%, the residual activity (ERBB4 (human); compound 1.0 µM) was 104% and the residual activity (HIPK3 (human); compound 0.1 µM) was 99%. The residual activity (HIPK3 (human); compound 1.0 µM) was 95%, the residual activity (HIPK3 (human); compound 10.0 µM) was 84% and the residual activity (TAOK1 (human); compound 0.1 µM) was 100%. For the same compound, the residual activity (TAOK1 (human); compound 1.0 µM) was 108%, the residual activity (TAOK1 (human); compound 10.0 µM) was 104% and the residual activity (RPS6KA5 KD1 KD2 (human); compound 0.1 µM) was 22%. It also gave a residual activity (RPS6KA5 KD1 KD2 (human); compound 1.0 µM) of 5%, a residual activity (RPS6KA5 KD1 KD2 (human); compound 10.0 µM) of 1% and a residual activity (MST4 (human); compound 0.1 µM) of 91%. The residual activity (MST4 (human); compound 1.0 µM) was 81%, the residual activity (MST4 (human); compound 10.0 µM) was 91% and the residual activity (HIPK1 (human); compound 0.1 µM) was 107%. For the same compound, the residual activity (HIPK1 (human); compound 1.0 µM) was 107%, the residual activity (HIPK1 (human); compound 10.0 µM) was 84% and the residual activity (CHEK2 (human); compound 0.1 µM) was 94%. The residual activity (CHEK2 (human); compound 1.0 µM) was 89%, the residual activity (CHEK2 (human); compound 10.0 µM) was 69% and the residual activity (PRKCA (human); compound 0.1 µM) was 84%. The residual activity (PRKCA (human); compound 1.0 µM) was 70%, the residual activity (PRKCA (human); compound 10.0 µM) was 30% and the residual activity (AURKA (human); compound 0.1 µM) was 91%. For the same compound, the residual activity (AURKA (human); compound 1.0 µM) was 95% and the residual activity (AURKA (human); compound 10.0 µM) was 103%.
